Assay results as given in patent EP0774461A1, “Excitatory amino acid derivatives” (ELI LILLY AND COMPANY, priority 1995, dated 1997).

Test system: metabotropic glutamate receptors
Assay: displacement of 1S,3R-ACPD-sensitive [3H]glutamate binding to rat brain cell membranes
Conditions: selective displacement of 1S,3R-ACPD-sensitive [3H]glutamate binding; crude membranes of rat forebrain
Experimental: The binding of [^3H]glutamate was conducted with crude membranes of rat forebrain as described by Schoepp and True. Schoepp and True, Neuroscience Lett., 145, 100-104 (1992) and Wright et al., J. Neurochemistry 63: 938-945 (1994).

IC50: 55 nM
SMILES: N[C@]1(C(=O)O)CO[C@@H]2[C@@H](C(=O)O)[C@@H]21 (racemic) [Example 1, 1SR,4SR,5RS,6SR-4-Amino-2-Oxabicyclo[3.1.0]hexane-4,6-dicarboxylic Acid]
